Data on one molecule can be found in patent US20170095440A1, “METHOD OF TREATING CANINE PANCREATITIS” (CK9, LLC, priority 2014, published 2017).

Entries after “also recorded” stand apart in the source; their conditions may differ.

The test system of one data set is rat models. The conditions noted are these: cited from earlier work.
For the next data set, the system named is TGF-β1. The conditions noted are these: one published study, cited from earlier work.
The subject of a further data set is Han Wistar rats. As to the kind of experiment: Rising-dose tolerance study, single oral gavage. Format: in vivo, rat. The procedure:
The following parameters and end points were evaluated in the rising-dose phase of this study: clinical signs, body weights, body weight changes, food consumption, and gross necropsy findings.
A total of 18 male and 24 female Han Wistar rats were received from Charles River Laboratories, Raleigh, N.C. The animals were examined and weighed on the day following receipt. The rising-dose phase animals were 8 weeks old and weighed between 176 g and 255 g at initiation of dosing and the multiple-dose phase animals were 8 weeks old and weighed between 172 g and 259 g at initiation of dosing.
For the rising-dose study, the test article was administered to the appropriate animals as a single dose by oral gavage. At least a 3-day observation period was maintained before proceeding to the next dose level/group. The dose volume for each animal was based on the most recent body weight measurement. The doses were given using a syringe with attached gavage cannula. The first day of dosing for each group was designated as Study Day 1.
The animals were removed from the cage and a detailed clinical observation was performed on the day of randomization and Days 1 to 8; 1 to 3 hours postdose on the day of dosing. Each animal was weighed on the day of randomization and Days 1 to 8. Food consumption was quantitatively measured for each animal weekly, starting Day −3, throughout the study.
Rising-dose study animals were subjected to a complete necropsy examination, which included evaluation of the carcass and musculoskeletal system; all external surfaces and orifices; cranial cavity and external surfaces of the brain; and thoracic, abdominal, and pelvic cavities with their associated organs and tissues. Necropsy examinations were conducted under the supervision of a board-certified veterinary pathologist.

The subject of data set [1] is dogs with suspected chronic pancreatitis. As to the kind of experiment: Serum canine pancreas-specific lipase (cPL/cPLI, Spec cPL) before and after treatment, clinical trial. It counts as in vivo, dog. The conditions noted are these: for Change in serum cPL/cPLI, pre- vs post-treatment (Wilcoxon matched-pair): methanesulfonate. How it is done:
Dogs were identified by screening current submissions to the Gastrointestinal Laboratory at Texas A&M indicative of pancreatitis (canine pancreas-specific lipase≧400 μg/L) using an immunoassay for measurement of canine pancreas-specific lipase in canine serum known as the spec CPL® Test (IDEXX, Laboratories). A number of potential study participants were directly referred to the investigator by veterinarians, based on positive pet-side SNAP cPL® Test (IDEXX Laboratories, Westbrook, Me., USA) results and concomitant clinical signs. After ascertaining individual suitability of a patient with the referring veterinarian, serum canine pancreas-specific lipase concentration, serum biochemistry profile, and complete blood count were evaluated or re-evaluated 12±4 days after collection of the initial sample submission to the Gastrointestinal Laboratory. Based on the assumption that consecutive canine pancreas-specific lipase elevations indicate chronic pancreatitis, enrollment was offered for patients with canine pancreas-specific lipase concentrations≧400 μg/L, serum triglyceride concentrations below 500 mg/dL, and no indication of hepatic, renal, or other organ disease. […] Owner consent was required prior to phlebotomy and for enrollment into the trial.
[…] […] Individual patients were medicated for between 21 to 31 days.
Blood samples were collected before beginning the treatment and after completion of the treatment period. Complete blood count (red blood cell count, hematocrit, mean corpuscular volume, mean corpuscular hemoglobin, mean corpuscular hemoglobin concentration, differential and absolute white blood cell count, red blood cell count, hemoglobin, platelet estimate, red blood cell morphology, white blood cell morphology, and hemoparasites) was evaluated at the Texas Veterinary Medical Diagnostic Laboratory (TVMDL). A serum chemistry profile with electrolytes (glucose, blood urea nitrogen, creatinine, calcium, phosphorus, albumin, total protein, total bilirubin, alkaline phosphatase, alanine amino transferase, aspartate amino transferase, γ-glutamyl transferase, cholesterol, triglycerides, globuline, sodium, potassium, and chloride) was performed on a SIRRUS analyzer (Stanbio, Boerne, Tex., USA). Serum concentrations of cPL (RI: 0-200 μg/L; Spec cPL® IDEXX Laboratories, Westbrook, Me., USA), cTLI (RI: 5.7-45.2 μg/L; Canine TLI DOUBLE ANTIBODY®, Siemens Healthcare Diagnostics, Los Angeles, Calif., USA), cobalamin (RI: 251-908 ng/L), and folate (RI: 7.7-24.4 μg/L; Immulite 2000®, Siemens Healthcare Diagnostics Inc., Deerfield, Ill., USA), canine specific C-reactive protein (RI: 0-7.6 mg/L, Tridelta Development Limited, Maynooth, CO. Kildare, Ireland), S100A12 (RI: 56-331 μg/L, Gastrointestinal Laboratory in-house radioimmunoassay), and TGF-β1 (RI: 38-72 ng/mL; Quantikine® ELISA, R&D Systems, Minneapolis, […]., USA) were performed at the Gastrointestinal Lab at Texas A&M University.
Additionally, samples that exceeded the working range of the Spec cPL assay were diluted and re-analyzed.
Pre-treatment and post-treatment results for all diagnostic tests were statistically analyzed using Prism 6 (GraphPad Software, La Jolla, Calif., USA). The D'Agostino-Pearson omnibus test was used to evaluate all datasets for Gaussian distribution. Groups were compared using a paired t-test for normally-distributed data sets and a Wilcoxon matched-pairs test when Gaussian distribution could not be assumed. Mean values and standard deviation are reported for data sets with Gaussian distribution. Median and minimum/maximum values are reported for data sets where Gaussian distribution could not be assumed. The significance threshold was set at p=0.05.

The mark [2] stands for this setting: 100, 550 or 1300 mg/kg single dose.

Take `CN(C)C(=O)COC(=O)Cc1ccc(OC(=O)c2ccc(NC(=N)N)cc2)cc1` [Camostat Mesilate, N,N-dimethylcarbamoylmethyl-4-(4-guanidinobenzoyloxy)phenylacetate methanesulfonate]: in the data set with rat models, the “Fibrosis associated with chronic pancreatitis” value was “suppress fibrosis”, the “Microscopic signs of inflammation” value is “markedly decrease microscopic signs of inflammation” and the Pro-inflammatory cytokine production entry is on record as “suppress pro-inflammatory cytokine production”. Further, in the data set on TGF-β1, the “Hepatic stellate cell activation and hepatic fibrosis” value was “attenuated hepatic stellate cell activation as well as hepatic fibrosis”; the “Systemic or local side effects” value was “without entailing apparent systemic or local side effects”. For the same molecule, the TGF-β1 concentrations entry in the data set with TGF-β1 (methanesulfonate) was “decreased TGF-β1 concentrations; also recorded: suppressed”. For the same molecule, the “Clinical observation not considered test article related” value in the data set with Han Wistar rats (550 mg/kg single dose) is listed as “hair loss was observed in 1 animal”. The “Necropsy observation not considered test article related” value with Han Wistar rats (1300 mg/kg single dose, male) is “Dark discoloration of the thymus was observed in one 1300 mg/kg male”. Further, the “Clinical observation not considered a direct test article effect” value in the data set with Han Wistar rats (1300 mg/kg single dose, possible aspiration during dosing) was “piloerection and abnormal breathing sounds were observed in 1 animal on Day 2”. Also, in the data set with Han Wistar rats (setting [2]), the “Body weight Days 1 to 8” value was “All animals gained weight”, the Food consumption entry is reported as “no significant changes in food consumption”, the Gross necropsy findings result is listed as “no significant gross necropsy findings” and the “Test article-related clinical observations” value is reported as “no test article-related clinical observations”. The Survival result in the data set on Han Wistar rats (single oral gavage 100, 550 or 1300 mg/kg, euthanasia Day 8, methanesulfonate) is on record as “All animals survived to scheduled euthanasia; also recorded: No animals died”. The “Serum cPL/cPLI concentration post-treatment (median)” value in data set [1] (4 mg/kg q 8 hrs oral capsules, 21-31 days, n=12, pre-treatment median 501, post range 125-2,836, p=0.9697) worked out at 453 µg/L. In data set [1] (4 mg/kg q 8 hrs, n=12), the “Change in serum cPL/cPLI, pre- vs post-treatment (Wilcoxon matched-pair)” value (“Change in serum cPL/cPLI” below) was “no significant difference; also recorded: did not change significantly”. Moreover, the “Change in serum cPL/cPLI” value in data set [1] (8 mg/kg q 8 hrs (24 mg/kg q d), n=17) is reported as “significant difference; also recorded: statistically significant change; also recorded: statistically significant decrease”. Further, in data set [1] (8 mg/kg q 8 hrs oral capsules, 21-31 days, n=17, pre-treatment median 882, post range 193-2,580, p=0.0232), the “Serum cPL/cPLI concentration post-treatment (median)” value is 633 µg/L. Moreover, the “Serum cPL/cPLI concentration post-treatment (median)” value in data set [1] (all treated dogs combined, n=29, pre-treatment median 690, post range 125-2,836, p=0.0903 or 0.0562) stood at 514 µg/L. Besides, the “Change in serum cPL/cPLI” value in data set [1] (all treated dogs combined, n=29, trend towards a decrease) was “no statistically significant difference”.
